Data taken from ChEMBL document CHEMBL1201862, “PubChem BioAssay data set” (2004).
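Interpolation was linear, between the two tested concentrations surrounding the appropriate level; five concentrations were tested over 48 hours in 96-well plates. GI50: concentration for 50% inhibition of growth.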 The source made the active and inactive calls. Cut-off read from the data, not from the text of the source: active = GI50 up to about 1.1 µM and inactive = higher.

Assays:
Assay in all cases: inhibition of tumour cell growth, NCI panel, 48 h
A549 = system: A549
CCRF-CEM = system: CCRF-CEM
COLO 205 = system: COLO 205
DMS-273 = system: DMS-273
HCC 2998 = system: HCC 2998
HCT-116 = system: HCT-116
HL-60 = system: HL-60
HOP-18 = system: HOP-18
HOP-92 = system: HOP-92
SF-295 = system: SF-295
SK-MEL-5 = system: SK-MEL-5
SK-OV-3 = system: SK-OV-3
SN12C = system: SN12C
SR = system: SR
SW-620 = system: SW-620
TK-10 = system: TK-10
UO-31 = system: UO-31
786-0 = system: 786-0
A498 = system: A498
CAKI-1 = system: CAKI-1
DLD-1 = system: DLD-1
DMS-114 = system: DMS-114
EKVX = system: EKVX
HOP-62 = system: HOP-62
HT-29 = system: HT-29
IGROV-1 = system: IGROV-1
K562 = system: K562
KM-20L2 = system: KM-20L2
KM12 = system: KM12
LXFL 529 = system: LXFL 529
M14 = system: M14
M19-MEL = system: M19-MEL
MOLT-4 = system: MOLT-4
Malme-3M = system: Malme-3M
NCI-H23 = system: NCI-H23
NCI-H522 = system: NCI-H522
OVCAR-3 = system: OVCAR-3
OVCAR-4 = system: OVCAR-4
OVCAR-5 = system: OVCAR-5
OVCAR-8 = system: OVCAR-8
RPMI-8226 = system: RPMI-8226
RXF 393 = system: RXF 393
SF-268 = system: SF-268
SF-539 = system: SF-539
SK-MEL-28 = system: SK-MEL-28
SK-MEL-2 = system: SK-MEL-2
SNB-19 = system: SNB-19
SNB-75 = system: SNB-75
U-251 = system: U-251
UACC-62 = system: UACC-62

CC(=O)Oc1cc(OC(C)=O)c2c(c1)OC(c1ccc(OC(C)=O)c(OC(C)=O)c1)CC2=O (stereo unspecified)
GI50 (A549): 0.0439 mM (inactive) | GI50 (CCRF-CEM): 0.0204 mM (inactive) | GI50 (COLO 205): 0.0631 mM (inactive) | GI50 (DMS-273): 0.0506 mM (inactive) | GI50 (HCC 2998): > 0.1 mM (inactive) | GI50 (HCT-116): 0.0637 mM (inactive) | GI50 (HL-60): 0.000458 mM (active) | GI50 (HOP-18): 0.0301 mM (inactive) | GI50 (HOP-92): 0.0298 mM (inactive) | GI50 (SF-295): 0.0416 mM (inactive) | GI50 (SK-MEL-5): 0.0553 mM (inactive) | GI50 (SK-OV-3): 0.0719 mM (inactive) | GI50 (SN12C): 4.46e-05 mM (active) | GI50 (SR): 0.0147 mM (inactive) | GI50 (SW-620): 0.0475 mM (inactive) | GI50 (TK-10): 0.0499 mM (inactive) | GI50 (UO-31): 0.0389 mM (inactive)

NC(=O)CCC(NC(=O)Cc1ccccc1)C(=O)O.NC(CCC(=O)NC(=O)Cc1ccccc1)C(=O)O (stereo unspecified)
GI50 (786-0): > 8.13 mM (inactive) | GI50 (A498): > 8.13 mM (inactive) | GI50 (A549): > 8.13 mM (inactive) | GI50 (CAKI-1): > 8.13 mM (inactive) | GI50 (CCRF-CEM): > 8.13 mM (inactive) | GI50 (COLO 205): > 8.13 mM (inactive) | GI50 (DLD-1): > 8.13 mM (inactive) | GI50 (DMS-114): > 8.13 mM (inactive) | GI50 (EKVX): > 8.13 mM (inactive) | GI50 (HCC 2998): > 8.13 mM (inactive) | GI50 (HCT-116): > 8.13 mM (inactive) | GI50 (HL-60): > 8.13 mM (inactive) | GI50 (HOP-18): > 8.13 mM (inactive) | GI50 (HOP-62): > 8.13 mM (inactive) | GI50 (HOP-92): > 8.13 mM (inactive) | GI50 (HT-29): > 8.13 mM (inactive) | GI50 (IGROV-1): > 8.13 mM (inactive) | GI50 (K562): > 8.13 mM (inactive) | GI50 (KM-20L2): > 8.13 mM (inactive) | GI50 (KM12): > 8.13 mM (inactive) | GI50 (LXFL 529): > 8.13 mM (inactive) | GI50 (M14): > 8.13 mM (inactive) | GI50 (M19-MEL): > 8.13 mM (inactive) | GI50 (MOLT-4): > 8.13 mM (inactive) | GI50 (Malme-3M): > 8.13 mM (inactive) | GI50 (NCI-H23): > 8.13 mM (inactive) | GI50 (NCI-H522): > 8.13 mM (inactive) | GI50 (OVCAR-3): > 8.13 mM (inactive) | GI50 (OVCAR-4): > 8.13 mM (inactive) | GI50 (OVCAR-5): > 8.13 mM (inactive) | GI50 (OVCAR-8): > 8.13 mM (inactive) | GI50 (RPMI-8226): > 8.13 mM (inactive) | GI50 (RXF 393): > 8.13 mM (inactive) | GI50 (SF-268): > 8.13 mM (inactive) | GI50 (SF-295): > 8.13 mM (inactive) | GI50 (SF-539): > 8.13 mM (inactive) | GI50 (SK-MEL-28): > 8.13 mM (inactive) | GI50 (SK-MEL-2): > 8.13 mM (inactive) | GI50 (SK-MEL-5): > 8.13 mM (inactive) | GI50 (SK-OV-3): > 8.13 mM (inactive) | GI50 (SN12C): > 8.13 mM (inactive) | GI50 (SNB-19): > 8.13 mM (inactive) | GI50 (SNB-75): 1.08 mM (inactive) | GI50 (SR): > 8.13 mM (inactive) | GI50 (SW-620): > 8.13 mM (inactive) | GI50 (TK-10): > 8.13 mM (inactive) | GI50 (U-251): > 8.13 mM (inactive) | GI50 (UACC-62): > 8.13 mM (inactive) | GI50 (UO-31): > 8.13 mM (inactive)
